In ChEMBL document CHEMBL6153035, “Natural and Semisynthetic Immunomodulatory Luakuliide Labdane Diterpenoids” (J Nat Prod, 2025):
Activity calls are given as the source filed them. The calls are words filed in the database; no cut-off is given here.

Assays:
[1] = Cytotoxicity against LPS-stimulated mouse BMDM cells assessed as changes in cellular metabolism at 1 to 100 nM for 8 hrs by MTT assay; format: toxicity, cell-based; settings: 0.1 µM, dose 1-100 nM
RAW264.7 [2] = assay: Cytotoxicity against LPS-stimulated mouse RAW264.7 cells assessed as changes in cellular metabolism at 1 to 10000 nM incubated for 8 hrs by MTT assay; format: toxicity, cell-based; settings: raw264.7, 8 h, 10 µM, dose 1-10000 nM
BMDM [3] = assay: Antiinflammatory activity against LPS-stimulated mouse BMDM cells assessed as induction of TNF production at 1 to 100 nM preincubated with compound for 8 hrs followed by LPS-induction and measured after 48 hrs by ELISA assay; format: functional, cell-based; settings: dose 1-100 nM, time 56.0 hrs
RAW264.7 [4] = assay: Antiinflammatory activity against LPS-stimulated mouse RAW264.7 cells assessed as reduction in TNF production at 1 to 1000 nM preincubated with compound for 8 hrs followed by LPS-induction and measured after 48 hrs by ELISA based assay; format: functional, cell-based; settings: dose 1-1000 nM, time 56.0 hrs
[5] = Cytotoxicity against LPS-stimulated mouse BMDM cells assessed as reduction in cellular metabolism at 1 to 100 nM incubated for 8 hrs in presence of 500 ng/mL of LPS-stimulation by MTT assay; format: toxicity, cell-based; settings: 0.1 µM, dose 1-100 nM
RAW264.7 [6] = assay: Cytotoxicity against LPS-stimulated mouse RAW264.7 cells assessed as reduction in cellular metabolism at 3.2 uM incubated for 8 hrs by MTT assay; format: toxicity, cell-based; settings: raw264.7, 8 h
RAW264.7 [7] = assay: Cytotoxicity against LPS-stimulated mouse RAW264.7 cells assessed as reduction in cellular metabolism at 10 uM incubated for 8 hrs by MTT assay; format: toxicity, cell-based; settings: raw264.7, 8 h
BMDM [8] = assay: Antiinflammatory activity against IFN-gamma and LPS-stimulated mouse BMDM cells assessed as reduction in IL-6 production at 1 to 100 nM primed with 20 U/mL of IFN-gamma followed by 200 ng/mL of LPS stimulation in presence of compound for 48 hrs by ELISA assay; format: functional, cell-based; settings: dose 1-100 nM
BMDM [9] = assay: Antiinflammatory activity against LPS-stimulated mouse BMDM cells assessed as reduction IL-6 production at 1 to 100 nM preincubated with compound for 8 hrs followed by LPS-induction and measured after 48 hrs by ELISA assay; format: functional, cell-based; settings: dose 1-100 nM, time 56.0 hrs
BMDM [10] = assay: Antiinflammatory activity against IFN-gamma and LPS-stimulated mouse BMDM cells assessed as reduction in IL-12 production at 1 to 100 nM primed with 20 U/mL of IFN-gamma followed by 200 ng/mL of LPS stimulation in presence of compound for 48 hrs by ELISA assay; format: functional, cell-based; settings: dose 1-100 nM
BMDM [11] = assay: Antiinflammatory activity against IFN-gamma and LPS-stimulated mouse BMDM cells assessed as change in IL-10 secretion at 1 to 100 nM primed with 20 U/mL of IFN-gamma followed by 200 ng/mL of LPS stimulation in presence of compound for 48 hour by ELISA assay; format: functional, cell-based; settings: dose 1-100 nM
BMDM [12] = assay: Antiinflammatory activity against LPS-stimulated mouse BMDM cells assessed as reduction in TNF production preincubated with compound for 8 hrs followed by LPS-induction and measured after 48 hrs by ELISA assay; format: functional, cell-based; settings: dose 1-100 nM, time 56.0 hrs
[13] = Cytotoxicity against IFN-gamma/LPS-stimulated mouse BMDM cells assessed as changes in cellular metabolism at 1 to 100 nM primed with 20 U/mL of IFN-gamma followed by 200 ng/mL of LPS stimulation in presence of compound at 1 to 100 nM for 48 hrs by MTT assay; format: toxicity, cell-based; settings: 0.1 µM, dose 1-100 nM
BMDM [14] = assay: Antiinflammatory activity against IFN-gamma and LPS-stimulated mouse BMDM cells assessed as change in NO production at 1 to 100 nM primed with 20 U/mL of IFN-gamma followed by 200 ng/mL of LPS stimulation in presence of compound for 48 hrs by […] assay; format: functional, cell-based; settings: dose 1-100 nM
BMDM [15] = assay: Antiinflammatory activity against LPS-stimulated mouse BMDM cells assessed as reduction in TNF production at 1 to 100 nM preincubated with compound for 8 hrs followed by LPS-induction and measured after 48 hrs by ELISA assay; format: functional, cell-based; settings: dose 1-100 nM, time 56.0 hrs
BMDM [16] = assay: Antiinflammatory activity against LPS-stimulated mouse BMDM cells assessed as reduction in IL-6 production at 1 to 100 nM preincubated with compound for 8 hrs followed by LPS-induction and measured after 48 hrs by ELISA assay; format: functional, cell-based; settings: dose 1-100 nM, time 56.0 hrs
BMDM [17] = assay: Antiinflammatory activity against LPS-stimulated mouse BMDM cells assessed as reduction in IL-6 production at 10 to 100 nM preincubated with compound for 8 hrs followed by LPS-induction and measured after 48 hrs by ELISA assay; format: functional, cell-based; settings: dose 10-100 nM, time 56.0 hrs

## CC1(C)CCC[C@@]23[C@H](O)O[C@@](C)(CC[C@@H]12)[C@@H]3CCc1ccoc1
[1]
  Activity: Non-toxic
RAW264.7 [2]
  Activity: Non-toxic
BMDM [3]
  Activity: Active
RAW264.7 [4]
  Activity: inactive
[5]
  Activity: Toxic

## CC1=CC[C@H]2C(C)(C)CCC[C@]2(C=O)[C@H]1CCc1ccoc1
RAW264.7 [6]
  Activity: Toxic
RAW264.7 [7]
  Activity: Toxic
[1]
  Activity: Non-toxic
BMDM [8]
  Activity: inactive
BMDM [3]
  Activity: Active
RAW264.7 [4]
  Activity: inactive
BMDM [9]
  Activity: inactive
[5]
  Activity: Toxic
BMDM [10]
  Activity: inactive

## CC1=C(CCc2cc(Br)oc2Br)[C@@]2(C=O)CCCC(C)(C)[C@@H]2CC1
RAW264.7 [6]
  Activity: Toxic
BMDM [11]
  Activity: Active
RAW264.7 [7]
  Activity: Toxic
BMDM [12]
  Activity: Dose-dependent-effect
[1]
  Activity: Non-toxic
[13]
  Activity: Toxic
BMDM [8]
  Activity: Active
RAW264.7 [4]
  Activity: inactive
BMDM [9]
  Activity: inactive
BMDM [14]
  Activity: inactive
BMDM [10]
  Activity: Active

## CO[C@@H]1O[C@@]2(C)CC[C@H]3C(C)(C)CCC[C@@]13[C@H]2CCC1=CCOC1=O
BMDM [11]
  Activity: Active
RAW264.7 [7]
  Activity: Toxic
[1]
  Activity: Non-toxic
[13]
  Activity: Toxic
BMDM [8]
  Activity: Active
BMDM [3]
  Activity: Active
RAW264.7 [4]
  Activity: inactive
[5]
  Activity: Toxic
BMDM [14]
  Activity: inactive
BMDM [10]
  Activity: Active

## CC1(C)CCC[C@@]23[C@H](O)O[C@@](C)(CC[C@@H]12)[C@@H]3CCC1=CCN(CC(=O)O)C1=O
BMDM [15]
  Activity: Active
RAW264.7 [7]
  Activity: Toxic
[1]
  Activity: Non-toxic
RAW264.7 [4]
  Activity: Active
BMDM [16]
  Activity: Active

## CC1=C(CCc2ccoc2)[C@@]2(C=O)CCCC(C)(C)[C@@H]2CC1
RAW264.7 [6]
  Activity: Toxic
RAW264.7 [7]
  Activity: Toxic
[1]
  Activity: Non-toxic
BMDM [8]
  Activity: inactive
BMDM [3]
  Activity: Active
RAW264.7 [4]
  Activity: inactive
[5]
  Activity: Toxic
BMDM [17]
  Activity: Active
BMDM [10]
  Activity: inactive

## CC1=C(CCC2=CCOC2=O)[C@@]2(C=O)CCCC(C)(C)[C@@H]2CC1
BMDM [11]
  Activity: Active
RAW264.7 [7]
  Activity: Toxic
[1]
  Activity: Non-toxic
[13]
  Activity: Toxic
BMDM [8]
  Activity: Active
RAW264.7 [4]
  Activity: inactive
[5]
  Activity: Toxic
BMDM [17]
  Activity: Active
BMDM [14]
  Activity: inactive
BMDM [10]
  Activity: Active

## CC(=O)O[C@@H]1O[C@@]2(C)CC[C@H]3C(C)(C)CCC[C@@]13[C@H]2CCc1ccoc1
RAW264.7 [6]
  Activity: Toxic
RAW264.7 [7]
  Activity: Toxic
RAW264.7 [4]
  Activity: Active
